Results reported in EP4810065A1, “COMBINED USE OF ANTIBODY-DRUG CONJUGATE AND POLY(ADENOSINE D[…]) POLYMERASE INHIBITOR” (Jiangsu Hansoh Pharmaceutical Group Co., Ltd., priority 2023, dated 2025).

Tests used:
SK-OV-3 cells = test: CTG growth inhibition, drug A/drug B cross-combination, 6 days; type: cell-based, human; conditions: Drug B alone, 4.12-1000.00 nM
Protocol: (§1) Tumor cells in good growth condition were seeded into 96-well plates. After overnight growth onto the wall, different concentrations of the test substances were administered, with different concentrations of the two test substances arranged in a cross-combination design.
(§2) The starting concentration of test drug A was 1000 nM, which was subjected to 1:3 serial dilution to generate a total of 6 concentration levels; the starting concentration of test drug B was set at 1000 nM, which was subjected to 1:3 serial dilution to generate a total of 6 concentration levels. After the combined test substances had acted on each cell line for 6 days, the CTG method was used to detect the in vitro proliferation inhibitory effect of the combined use of the test drugs on tumor cells. Table 2-1 Drug A and drug B treatment dosing scheme
(§3) Based on the signal values measured by the microplate reader, the cell growth inhibition rate was calculated according to the following formula: Growth inhibition rate % (growth inhibition%) = [1-(measured value-minimum value mean-background value)/(maximum value mean-background value-minimum value mean)] ×100% (measured value: reading value of compound wells; minimum value: reading value of ZPE wells (reading value of wells containing cell culture medium without cells); maximum value: reading value of HPE wells (cell reading value of the DMSO treatment group); background value: cell background measured value before addition of the compound).

OAW42 cells = test: as above; type: cell-based, human; conditions: Drug B alone, 4.12-1000.00 nM
Protocol: as §1, §2, §3

EN cells = test: as above; type: cell-based, human; conditions: Drug B alone, 4.12-1000.00 nM
Protocol: as §1, §2, §3

MX-1 cells = test: as above; type: cell-based, human; conditions: Drug B alone, 4.12-1000.00 nM
Protocol: as §1, §2, §3

HEC-1A cells = test: as above; type: cell-based, human; conditions: Drug B alone, 4.12-1000.00 nM
Protocol: as §1, §2, §3

CAL-51 cells = test: as above; type: cell-based, human; conditions: Drug B alone, 4.12-1000.00 nM
Protocol: as §1, §2, §3

COV362 cells = test: as above; type: cell-based, human; conditions: Drug B alone, 4.12-1000.00 nM
Protocol: as §1, §2, §3

[1] = tested on: MX-1 human breast cancer cell mouse xenografts; test: MX-1 human breast cancer subcutaneous xenograft model; type: in vivo, Balb/c nude mice
Protocol: Drug A was prepared by dilution with normal saline, and drug B was prepared using 0.5% HPMC; Human breast cancer MX-1 cells were cultured as a monolayer in vitro under culture conditions of DMEM/F12 medium supplemented with 10% fetal bovine serum, 100 U/mL penicillin, and 100 µg/mL streptomycin, and cultured in a cell incubator at 37°C and 5% CO2. Routine digestion treatment and passaging were carried out twice a week using trypsin-EDTA. When the cell confluence was 80%-90% and the number of cells reached the requirement, the cells were collected, counted, and inoculated.
Balb/c nude mice, female, body weight 17-25 g, were purchased from Shanghai Bi Kai Ke Yi Biotechnology Co., Ltd.
MX-1 cells were resuspended in PBS, the density after resuspension was 100×10^6/mL, the resuspended cells were mixed with an equal volume of Matrigel, inoculated subcutaneously into the right dorsal side of each mouse, 0.1 mL was inoculated into each mouse (5×10^6 cells/animal), and when the average tumor volume grew to 100-150 mm^3, grouping was carried out (D1), and drug administration was started on the day of grouping. The mice were administered by gavage (p.o.) once daily; the mice were administered by tail vein injection (i.v.) as a single administration; the administration volume was 10 mL/kg; the vehicle group was given the same volume of "vehicle"; the specific administration doses and administration regimens are shown in Table 3-1. Tumor volume was measured, mouse body weight was weighed, and data were recorded.
The experimental indicator was to examine the effect of the drug on tumor growth, and the specific indicator was the tumor growth inhibition rate TGI (%).
The tumor diameter was measured twice a week with a vernier caliper, and the calculation formula for tumor volume (V) was:V = 1/2×a×b^2 where a, b respectively indicate length and width.
Calculation of TGI (%): When there was no tumor regression, TGI (%) = [1 - (average tumor volume of a certain treatment group at the end of administration - average tumor volume of that treatment group at grouping)/(average tumor volume of the vehicle control group at the end of treatment - average tumor volume of the vehicle control group at grouping)] × 100%. When there was tumor regression, TGI (%) = [1 - (average tumor volume of a certain treatment group at the end of administration - average tumor volume of that treatment group at grouping)/average tumor volume of that treatment group at grouping] × 100%.
At the end of the experiment, upon reaching the experimental endpoint, or when the average tumor volume reached 2000 mm^3, the animals were euthanized under CO2 anesthesia, and then dissected for tumor collection and photographing.
The experimental data were analyzed and plotted using GraphPad Prism 9.4. Based on the tumor volume data of each group at different time points, Dunnett's multiple comparisons test in Two-way ANOVA was used for statistical analysis to evaluate differences among groups. […] Table 3-1. Dosing regimen of drug A in combination with drug B in the MX-1 model

Compound `CCc1cc2ncc(CN3CC=C(c4ccc(C(=O)NC)nc4)CC3)cc2[nH]c1=O` [Drug B, 1'-((7-ethyl-6-oxo-5,6-dihydro-1,5-naphthyridin-3-yl)methyl)-N-methyl-1',2',3',6'-tetrahydro-[3,4'-bipyridine]-6-carboxamide] has a Growth inhibition rate (SK-OV-3 cells; drug B 4.12 nM) of 3.96%, a Growth inhibition rate (SK-OV-3 cells; drug B 12.35 nM) of 2.49% and a Growth inhibition rate (SK-OV-3 cells; drug B 37.04 nM) of 2.34%. The Growth inhibition rate (SK-OV-3 cells; drug B 111.11 nM) was 6.14%, the Growth inhibition rate (SK-OV-3 cells; drug B 333.33 nM) was 9.22% and the Growth inhibition rate (OAW42 cells; drug B 4.12 nM) was 6.29%. It also gave a Growth inhibition rate (OAW42 cells; drug B 12.35 nM) of 4.07%, a Growth inhibition rate (OAW42 cells; drug B 37.04 nM) of 6.30% and a Growth inhibition rate (OAW42 cells; drug B 111.11 nM) of 7.53%. For the same compound, the Growth inhibition rate (OAW42 cells; drug B 333.33 nM) was 12.46%, the Growth inhibition rate (EN cells; drug B 4.12 nM) was 31.13% and the Growth inhibition rate (EN cells; drug B 12.35 nM) was 22.59%. The Growth inhibition rate (EN cells; drug B 37.04 nM) was 24.15%, the Growth inhibition rate (EN cells; drug B 111.11 nM) was 27.18% and the Growth inhibition rate (EN cells; drug B 333.33 nM) was 24.54%. It also gave a Growth inhibition rate (MX-1 cells; drug B 4.12 nM) of 33.15%, a Growth inhibition rate (MX-1 cells; drug B 12.35 nM) of 31.24% and a Growth inhibition rate (MX-1 cells; drug B 37.04 nM) of 33.85%. The Growth inhibition rate (MX-1 cells; drug B 111.11 nM) was 40.59%, the Growth inhibition rate (MX-1 cells; drug B 333.33 nM) was 46.92% and the Growth inhibition rate (HEC-1A cells; drug B 4.12 nM) was 3.73%. It also gave a Growth inhibition rate (HEC-1A cells; drug B 12.35 nM) of 4.25%, a Growth inhibition rate (HEC-1A cells; drug B 37.04 nM) of 5.84% and a Growth inhibition rate (HEC-1A cells; drug B 111.11 nM) of 9.01%. It also gave a Growth inhibition rate (HEC-1A cells; drug B 333.33 nM) of 7.40%, a Growth inhibition rate (CAL-51 cells; drug B 4.12 nM) of 9.89% and a Growth inhibition rate (CAL-51 cells; drug B 12.35 nM) of 8.42%. It also gave a Growth inhibition rate (CAL-51 cells; drug B 37.04 nM) of 12.34%, a Growth inhibition rate (CAL-51 cells; drug B 111.11 nM) of 11.19% and a Growth inhibition rate (CAL-51 cells; drug B 333.33 nM) of 15.02%. The Growth inhibition rate (COV362 cells; drug B 4.12 nM) was 22.59%, the Growth inhibition rate (COV362 cells; drug B 12.35 nM) was 22.45% and the Growth inhibition rate (COV362 cells; drug B 37.04 nM) was 21.18%. The Growth inhibition rate (COV362 cells; drug B 111.11 nM) was 25.95%, the Growth inhibition rate (COV362 cells; drug B 333.33 nM) was 23.74% and the “Average tumor volume (mm^3) ± SEM” value ([1]; D0 (at grouping), Drug B 0.3 mg/kg) was 148±7 mm^3. The “Average tumor volume (mm^3) ± SEM” value ([1]; D28, Drug B 0.3 mg/kg) was 199±20 mm^3, the “TGI (%)” value ([1]; D28, Drug B 0.3 mg/kg) was 97.25% and the Partial regression ([1]; D28, Drug B 0.3 mg/kg, animals with partial regression/animals in group) was 2/8. For the same compound, the “tolerability (body weight, death, abnormal symptoms)” value ([1]; MX-1 tumor-bearing mice) was “could well tolerate”.
